The Kd is the concentration at which binding is half-saturated. Low readings indicate a tighter complex, high ones a looser complex. The term Ki denotes the equilibrium dissociation constant of an inhibitor or competing ligand from its target. A high value points to weaker binding. A word on the IC50: it is the midpoint of a concentration-inhibition curve. Read a low IC50 as inhibition by little substance.

For 23 compounds, Kd, Ki and IC50 results are on record in ChEMBL document CHEMBL3098110, “Modulating the interaction between CDK2 and cyclin A with a quinoline-based inhibitor” (Bioorg Med Chem Lett, 2014).

Experiment [1] addresses T1, Cyclin-dependent kinase 2 (Homo sapiens, UniProt P24941).
Experiment [2] has as its target T1, Cyclin-dependent kinase 2. This is another data set of the same source.
Description: Displacement of B-Alexa-Fluor647 from CDK2 (unknown origin) by fluorescence polarization assay
The target in experiment [3] is T1, Cyclin-dependent kinase 2. This is another data set of the same source.
Description: Inhibition of CDK2 (unknown origin)-cyclin A interaction preincubated for 30 mins at room temperature followed by incubation at 40 degC for 30 mins by SDS-PAGE analysis
Experiment [4] addresses T1, Cyclin-dependent kinase 2. The source holds these as a separate data set.
Description: Binding affinity to human CDK2 by isothermal titration calorimetric analysis

Each structure is given as a SMILES string. Some results are limits rather than exact numbers.

`CNC(=O)[C@H](Cc1ccc(O)cc1)NC(=O)c1cc(C(=O)O)c2cc(/C=C/c3ccc(Cl)cc3)ccc2n1` showed a dissociation constant (Kd) in experiment [1] of 300 nM. Moreover, affinity in experiment [2] was put at a Ki of 100 nM. In experiment [3], this compound displayed an IC50 of over 10000 nM.
For `COC(=O)[C@H](Cc1ccc(O)cc1)NC(=O)c1cc(CO)c2cc(-c3cccc(C(F)(F)F)c3)ccc2n1` the same measures were over 40000 nM, over 40000 nM and over 10000 nM.
For `COC(=O)[C@H](Cc1ccc(O)cc1)NC(=O)c1cc(C(N)=O)c2cc(-c3cccs3)ccc2n1` the same measures were over 40000 nM, over 40000 nM and over 10000 nM.
The like results for `COC(=O)[C@H](Cc1ccc(O)cc1)NC(=O)c1cc(C(=O)O)c2cc(N3CCOCC3)ccc2n1` were, in that order, 2400 nM, 2800 nM and over 10000 nM.
On to `COC(=O)[C@H](Cc1ccc(O)cc1)NC(=O)c1cc(C(=O)O)c2cc(-c3cccs3)ccc2n1`, for which the dissociation constant (Kd) in experiment [1] is 1100 nM; in experiment [4] it was 1000 nM. For the same compound, in experiment [2], affinity was put at a Ki of 900 nM. Also, the IC50 in experiment [3] is over 10000 nM.
Compound `COC(=O)[C@H](Cc1ccc(O)cc1)NC(=O)c1cc(C(=O)O)c2cc(/C=C/c3ccc(Cl)cc3)ccc2n1` showed an equilibrium dissociation constant (Kd) in experiment [1] of 5 nM. Moreover, in experiment [2], the inhibition constant (Ki) is under 100 nM. Besides, in experiment [3], the IC50 was over 10000 nM.
The like results for `COC(=O)[C@H](Cc1ccc(O)cc1)NC(=O)c1cc(C(=O)O)c2cc(-c3cc(Cl)cc(Cl)c3)ccc2n1` were, in that order, 320 nM, 200 nM and over 10000 nM.
For `COC[C@H](Cc1ccc(O)cc1)NC(=O)c1cc(C(=O)O)c2cc(/C=C/c3ccc(Cl)cc3)ccc2n1` the same measures were 25 nM, under 100 nM and over 10000 nM.
The like results for `COC(=O)[C@H](Cc1ccc(O)cc1)NC(=O)c1cc(C(=O)O)c2cc(-c3ccc(Cl)cc3)ccc2n1` were, in that order, 900 nM, 900 nM and over 10000 nM.
Turning to `COC[C@H](Cc1ccc(O)cc1)NC(=O)c1cc(C(=O)O)c2cc(-c3cccc(C(F)(F)F)c3)ccc2n1`, in experiment [1], binding was characterised by a dissociation constant (Kd) of 240 nM. The same compound displayed an inhibition constant (Ki) in experiment [2] of 100 nM. The compound further yielded an IC50 in experiment [3] of over 10000 nM.
For `COC(=O)[C@H](Cc1cccc(O)c1)NC(=O)c1cc(C(=O)O)c2cc(-c3cccc(C(F)(F)F)c3)ccc2n1` the same measures were over 40000 nM, over 40000 nM and over 10000 nM.
Compound `COC(=O)[C@H](Cc1ccc(O)cc1)NC(=O)c1cc(C(=O)NS(C)(=O)=O)c2cc(-c3cccs3)ccc2n1` registered a Kd in experiment [1] of over 40000 nM. For the same compound, the inhibition constant Ki in experiment [2] was over 40000 nM. This compound also displayed a concentration for half-maximal inhibition (IC50) in experiment [3] of over 10000 nM.
`CCCCCCc1ccc2nc(C(=O)N[C@@H](Cc3ccc(O)cc3)C(=O)OC)cc(C(=O)O)c2c1` came in with a Kd in experiment [1] of 76 nM. In experiment [2], the Ki was under 100 nM. This compound gave a half-maximal inhibitory concentration (IC50) in experiment [3] of over 10000 nM.
The like results for `COC(=O)[C@H](Cc1ccc(O)cc1)NC(=O)c1cc(C(=O)O)c2cc(-c3ccccc3)ccc2n1` were, in that order, 12000 nM, 10000 nM and over 10000 nM.
For `CCC[C@H](Cc1ccc(O)cc1)NC(=O)c1cc(C(=O)O)c2cc(-c3cccc(C(F)(F)F)c3)ccc2n1`, the dissociation constant Kd in experiment [1] was 400 nM. This compound also displayed a Ki in experiment [2] of 300 nM. The compound also registered a 50% inhibitory concentration (IC50) in experiment [3] of over 10000 nM.
`COC(=O)[C@H](Cc1ccc(O)cc1)NC(=O)c1cc(C(=O)O)c2cc(CCc3ccc(Cl)cc3)ccc2n1`: the dissociation constant (Kd) was determined as 48 nM in experiment [1] and 55 nM in experiment [4]. The same compound returned a Ki in experiment [2] of under 100 nM. In experiment [3], the IC50 was over 10000 nM.
On to `O=C(NCCc1ccc(O)cc1)c1cc(C(=O)O)c2cc(-c3cccs3)ccc2n1`, for which the Kd in experiment [1] is over 40000 nM. Besides, the Ki in experiment [2] was over 40000 nM. Besides, in experiment [3], the IC50 was over 10000 nM.
As to `C[C@H](Cc1ccc(O)cc1)NC(=O)c1cc(C(=O)O)c2cc(-c3cccc(C(F)(F)F)c3)ccc2n1`, the affinity in experiment [1], expressed as Kd, was 4000 nM. Besides, the Ki in experiment [2] stood at 2500 nM. The half-maximal inhibitory concentration (IC50) in experiment [3] is over 10000 nM.
On to `COC(=O)[C@H](Cc1ccc(O)cc1)NC(=O)c1cc(C(=O)O)c2cc(-c3cccc(C(F)(F)F)c3)ccc2n1`, for which the Kd in experiment [1] worked out at 40 nM; in experiment [4], 50 nM. This compound also showed a Ki in experiment [2] of under 100 nM. The same compound registered a half-inhibitory concentration (IC50) in experiment [3] of over 10000 nM.
In experiment [1], `COC(=O)[C@H](Cc1ccc(OC)cc1)NC(=O)c1cc(C(=O)O)c2cc(-c3cccc(C(F)(F)F)c3)ccc2n1` came in with a Kd of over 40000 nM. In experiment [2], this compound returned a Ki of over 40000 nM. The same compound registered an IC50 in experiment [3] of over 10000 nM.
Take `CN(C)C(=O)[C@H](Cc1ccc(O)cc1)NC(=O)c1cc(C(=O)O)c2cc(/C=C/c3ccc(Cl)cc3)ccc2n1`: binding in experiment [1] was characterised by a dissociation constant (Kd) of 350 nM. In experiment [2], this compound had a Ki of 160 nM. For the same compound, the IC50 in experiment [3] is over 10000 nM.
For `O=C(N[C@@H](Cc1ccc(O)cc1)C(=O)O)c1cc(C(=O)O)c2cc(-c3cccc(C(F)(F)F)c3)ccc2n1` the same measures were over 10000 nM, 12000 nM and over 10000 nM.
`COC(=O)[C@H](Cc1ccc(F)cc1)NC(=O)c1cc(C(=O)O)c2cc(-c3cccc(C(F)(F)F)c3)ccc2n1` gave a Kd in experiment [1] of 4000 nM. For the same compound, the inhibition constant (Ki) in experiment [2] is 2500 nM. For the same compound, in experiment [3], the IC50 was over 10000 nM.
